Experimental data reported in patent publication US4355040A, “Hypotensive imidazole-5-acetic acid derivatives” (Takeda Chemical Industries, Ltd., priority 1979, dated 1982).
Structures can show the parent of a compound that is named as a salt. Where two headings read alike, the source gives them in different places.

Test system: angiotensin II (aortic blood vessel of rabbits)
Test: Antagonistic effect on angiotensin II (A II)-induced tension, aortic blood vessel of rabbits
Type: cell-based
Details: Oryctolagus cuniculus, 0.25 h; for inhibition at 0.1 µM: 10^-7 M drug substance
[1] = 10^-5 M drug substance, A II 4×10^-9 M, 15 minutes, read-out: Inhibition
[2] = 10^-6 M drug substance, A II 4×10^-9 M, 15 minutes, read-out: Inhibition

From the text: Antagonistic effect of the compound (I) of the present invention on angiotensin II (hereinafter referred to briefly as "A II") (with aortic blood vessel of rabbits)
The blood-vessel preparation and reaction were done in accordance with the method as described in "European Journal of Pharmacology", 18, 316 (1972). […] [formula] where; T1 =Change in isometric tension of the blood vessel brought about by A II without a test drug substance (g)

Structure (SMILES): CCCCNc1ccc(-c2nc(Cl)c(CC(=O)O)n2Cc2ccccc2)cc1
- inhibition at 10 µM [1]: 63%

Structure (SMILES): CCOc1ccc(Cn2c(-c3ccccc3)nc(Cl)c2CC(=O)O)cc1
- inhibition at 1 µM [2]: 43%

Structure (SMILES): O=C(O)Cc1c(Cl)nc(-c2ccccc2)n1Cc1ccc(Cl)cc1 [1-(4-chlorobenzyl)-4-chloro-2-phenylimidazole-5-acetic acid]
- inhibition at 10 µM [1]: 25%

Structure (SMILES): CC(C)c1nc(Cl)c(CC(=O)O)n1Cc1ccccc1 [i-C3 H7 / H / H / H]
- inhibition at 1 µM [2]: 41%

Structure (SMILES): COc1ccc(Cn2c(-c3ccccc3)nc(Cl)c2CC(=O)O)cc1C [drawing 124, 4-chloro-1-(3-methyl-4-methoxybenzyl)-2-phenylimidazole-5-acetic acid]
- inhibition at 1 µM [2]: 80%

Structure (SMILES): CCCCCc1nc(Cl)c(CC(=O)O)n1Cc1ccccc1 [n-C 5 H11 / H / H / H]
- inhibition at 1 µM [2]: 65%

Structure (SMILES): CN(C)c1ccc(-c2nc(Cl)c(CC(=O)O)n2Cc2ccccc2)cc1Cl
- inhibition at 1 µM [2]: 33%

Structure (SMILES): CN(C)c1ccc(-c2nc(Cl)c(CC(=O)O)n2Cc2ccccc2)cc1[N+](=O)[O-]
- inhibition at 10 µM [1]: 73%

Structure (SMILES): O=C(O)Cc1c(Cl)nc(-c2ccccc2)n1Cc1ccc(OCc2ccccc2)cc1 [1-(4-benzyloxybenzyl)-4-chloro-2-phenylimidazole-5-acetic acid]
- inhibition at 10 µM [1]: 19%

Structure (SMILES): O=C(O)Cc1c(Cl)nc(-c2ccc3c(c2)OCO3)n1Cc1ccccc1
- inhibition at 10 µM [1]: 51%

Structure (SMILES): Nc1ccc(-c2nc(Cl)c(CC(=O)O)n2Cc2ccccc2)cc1 [drawing 101]
- inhibition at 10 µM [1]: 50%

Structure (SMILES): O=C(O)Cc1c(Cl)nc(C2CCCCC2)n1Cc1ccccc1
- inhibition at 1 µM [2]: 18%

Structure (SMILES): O=C(O)Cc1c(Cl)nc(-c2ccccc2)n1Cc1ccccc1F [4-chloro-1-(2-fluorobenzyl)-2-phenylimidazole-5-acetic acid]
- inhibition at 1 µM [2]: 23%

Structure (SMILES): CCOc1ccc(Cn2c(-c3ccccc3)nc(Cl)c2CC(=O)O)cc1C
- inhibition at 1 µM [2]: 81%

Structure (SMILES): COc1ccc(Cn2c(-c3ccc(OC)c(C)c3)nc(Cl)c2CC(=O)O)cc1C
- inhibition at 1 µM [2]: 54%

Structure (SMILES): O=C(O)Cc1c(Cl)nc(-c2ccccc2O)n1Cc1ccccc1
- inhibition at 10 µM [1]: 55%

Structure (SMILES): COc1ccc(Cn2c(-c3ccccc3)nc(Cl)c2CC(=O)O)cc1OC
- inhibition at 1 µM [2]: 38%

Structure (SMILES): CCCCCc1nc(Cl)c(CC(=O)O)n1Cc1ccccc1Cl [n-C5 H11 / 2-Cl / H / H]
- inhibition at 0.1 µM (A II 4×10^-9 M, 15 minutes): 57%

Structure (SMILES): CCCCc1nc(Cl)c(CC(=O)O)n1Cc1ccccc1[N+](=O)[O-] [n-C4 H9 / 2-NO2 / H / H]
- inhibition at 0.01 µM (10^-8 M drug substance, A II 4×10^-9 M, 15 minutes): 30%

Structure (SMILES): O=C(O)Cc1c(Cl)nc(-c2ccccc2)n1Cc1ccccc1Br
- inhibition at 1 µM [2]: 60%

Structure (SMILES): O=C(O)Cc1c(Cl)nc(-c2ccccc2)n1Cc1c(Cl)cccc1Cl
- inhibition at 1 µM [2]: 34%

Structure (SMILES): COc1ccc(-c2nc(Cl)c(CC(=O)O)n2Cc2ccccc2)cc1C
- inhibition at 1 µM [2]: 32%

Structure (SMILES): O=C(O)Cc1c(Cl)nc(-c2ccccc2)n1Cc1ccc(Cl)cc1Cl [1-(2,4-dichlorobenzyl)-4-chloro-2-phenylimidazole-5-acetic acid hydrochloride]
- inhibition at 10 µM [1]: 30%

Structure (SMILES): CCc1nc(Cl)c(CC(=O)O)n1Cc1ccccc1 [C2 H5 / H / H / H]
- inhibition at 1 µM [2]: 36%

Structure (SMILES): O=C(O)Cc1c(Cl)nc(-c2cc([N+](=O)[O-])c(Cl)c([N+](=O)[O-])c2)n1Cc1ccccc1 [drawing 108]
- inhibition at 1 µM: 82%

Structure (SMILES): CCCc1nc(Cl)c(CC(=O)O)n1Cc1ccccc1 [n-C3 H7 / H / H / H]
- inhibition at 1 µM [2]: 22%

Structure (SMILES): O=C(O)Cc1c(Cl)nc(C2CCCC2)n1Cc1ccccc1
- inhibition at 1 µM [2]: 34%

Structure (SMILES): O=C(O)Cc1c(Cl)nc(-c2ccccc2)n1Cc1cc([N+](=O)[O-])ccc1Cl [1-(2-chloro-5-nitrobenzyl)-4-chloro-2-phenylimidazole-5-acetic acid]
- inhibition at 1 µM [2]: 34%

Structure (SMILES): CCN(CC)c1ccc(-c2nc(Cl)c(CC(=O)O)n2Cc2ccccc2)cc1Cl
- inhibition at 1 µM [2]: 25%

Structure (SMILES): COc1cccc(-c2nc(Cl)c(CC(=O)O)n2Cc2ccccc2Cl)c1
- inhibition at 1 µM [2]: 23%

Structure (SMILES): COc1ccc(-c2nc(Cl)c(CC(=O)O)n2Cc2ccccc2)cc1OC
- inhibition at 1 µM [2]: 18%

Structure (SMILES): O=C(O)Cc1c(Cl)nc(-c2cccc(O)c2)n1Cc1ccccc1
- inhibition at 10 µM [1]: 18%

Structure (SMILES): CCCCOc1ccc(Cn2c(CCCC)nc(Cl)c2CC(=O)O)cc1 [n-C4 H9 / 4-n-C4 H9 O / H / H]
- inhibition at 1 µM [2]: 85%

Structure (SMILES): CC(C)(C)c1nc(Cl)c(CC(=O)O)n1Cc1ccccc1 [t-C4 H9 / H / H / H]
- inhibition at 1 µM [2]: 10%

Structure (SMILES): COc1cccc(Cn2c(-c3ccccc3)nc(Cl)c2CC(=O)O)c1 [4-chloro-1-(3-methoxybenzyl)-2-phenylimidazole-5-acetic acid]
- inhibition at 10 µM [1]: 73%

Structure (SMILES): CCCCc1nc(Cl)c(CC(=O)O)n1Cc1ccccc1OCC [n-C4 H9 / 2-C2 H5 O / H / H, 2-Butyl-4-chloro-1-(2-ethoxybenzyl)imidazole-5-acetic acid]
- inhibition at 1 µM [2]: 53%

Structure (SMILES): CCCCCCc1nc(Cl)c(CC(=O)O)n1Cc1ccccc1Cl [n-C6 H13 / 2-Cl / H / H]
- inhibition at 0.1 µM (A II 4×10^-9 M, 15 minutes): 84%

Structure (SMILES): O=C(O)Cc1c(Cl)nc(-c2ccccc2[N+](=O)[O-])n1Cc1ccccc1
- inhibition at 10 µM [1]: 35%

Structure (SMILES): CCCCOc1ccc(Cn2c(-c3ccccc3)nc(Cl)c2CC(=O)O)cc1 [drawing 121]
- inhibition at 1 µM [2]: 56%

Structure (SMILES): COc1ccccc1Cn1c(-c2ccccc2)nc(Cl)c1CC(=O)O
- inhibition at 1 µM [2]: 42%

Structure (SMILES): Nc1ccccc1-c1nc(Cl)c(CC(=O)O)n1Cc1ccccc1
- inhibition at 10 µM [1]: 30%

Structure (SMILES): CCCCCCc1nc(Cl)c(CC(=O)O)n1Cc1ccc(OCCCC)cc1 [n-C6 H13 / 4-n-C4 H9 O / H / H]
- inhibition at 1 µM [2]: 100%

Structure (SMILES): O=C(O)Cc1c(Cl)nc(-c2ccccc2)n1Cc1c(F)cccc1Cl
- inhibition at 1 µM [2]: 64%

Structure (SMILES): CN(C)c1c([N+](=O)[O-])cc(-c2nc(Cl)c(CC(=O)O)n2Cc2ccccc2)cc1[N+](=O)[O-]
- inhibition at 10 µM: 86%

Structure (SMILES): O=C(O)Cc1c(Cl)nc(-c2ccc(O)cc2)n1Cc1ccccc1 [drawing 103]
- inhibition at 10 µM [1]: 32%

Structure (SMILES): CCOc1ccccc1Cn1c(-c2ccccc2)nc(Cl)c1CC(=O)O
- inhibition at 1 µM [2]: 41%

Structure (SMILES): COc1cc(-c2nc(Cl)c(CC(=O)O)n2Cc2ccccc2)ccc1O
- inhibition at 1 µM [2]: 16%

Structure (SMILES): CCCCCCc1nc(Cl)c(CC(=O)O)n1Cc1ccc(OC)c(C)c1 [n-C6 H13 / 3-CH3 / 4-CH3 O / H]
- inhibition at 1 µM [2]: 100%

Structure (SMILES): Cc1ccccc1Cn1c(-c2ccccc2)nc(Cl)c1CC(=O)O
- inhibition at 10 µM [1]: 58%

Structure (SMILES): O=C(O)Cc1c(Cl)nc(-c2ccccc2)n1Cc1ccccc1Cl [drawing 92]
- inhibition at 10 µM [1]: 90%

Structure (SMILES): COc1cc(-c2nc(Cl)c(CC(=O)O)n2Cc2ccccc2)ccc1OCc1ccccc1
- inhibition at 1 µM [2]: 18%

Structure (SMILES): O=C(O)Cc1c(Cl)nc(-c2ccc(O)c(O)c2)n1Cc1ccccc1
- inhibition at 1 µM [2]: 34%

Structure (SMILES): COc1ccc(Cn2c(-c3ccccc3)nc(Cl)c2CC(=O)O)cc1
- inhibition at 10 µM [1]: 61%

Structure (SMILES): Cc1ccc(Cn2c(-c3ccccc3)nc(Cl)c2CC(=O)O)cc1 [4-chloro-1-(4-methylbenzyl)-2-phenylimidazole-5-acetic acid]
- inhibition at 10 µM [1]: 80%

Structure (SMILES): CCCCc1nc(Cl)c(CC(=O)O)n1Cc1ccc(OC)c(C)c1 [n-C4 H9 / 3-CH3 / 4-CH3 O / H]
- inhibition at 1 µM [2]: 99%

Structure (SMILES): Cc1nc(Cl)c(CC(=O)O)n1Cc1ccccc1 [CH3 / H / H / H]
- inhibition at 10 µM [1]: 38%

Structure (SMILES): CN(C)c1ccc(-c2nc(Cl)c(CC(=O)O)n2Cc2ccccc2)cc1Br
- inhibition at 1 µM [2]: 18%
